In the supplement of paper PMC5580409:

What follows are compounds tested on Plasmodium falciparum 3D7 (assay: pEC50, asexual blood-stage growth inhibition). Conditions: 72 h.
Method: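 Held-out test set measured in the Guy lab in 2014 with the same procedure as the primary St. Jude screen. P. falciparum 3D7 blood-stage culture (2% hematocrit, 1% parasitemia) was treated with compound for 72 h at 37 °C, and growth was read by SYBR Green I fluorescence. EC50 came from a four-parameter Hill fit over a 10-point dilution series […].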

Row | Compound | pEC50
1 | CCCCNC(=O)c1cn(C2CCCCC2)cc(C(=O)NC2CCN(Cc3ccccc3)C2)c1=O (stereo not drawn) | < 4.82
2 | CCCn1c(=N)n(CC(O)COc2ccc(Cl)cc2)c2ccccc21 (stereo not drawn) | < 4.82
3 | CCOC(=O)c1c(C)oc2cc(CN(C)C)c(O)cc12 | 5.29
4 | OC(CNCc1ccc(-c2ccccc2)cc1)c1ccccc1 (stereo not drawn) | < 4.82
5 | CCN(CC)CC(O)Cn1c2ccccc2c2ccccc21 (stereo not drawn) | 5.34
6 | Cc1ccc(Nc2cc(N3CCN(C(=O)c4ccc(C)cc4)CC3)ncn2)cc1 | 6.13
7 | Cc1cc(Nc2ccccc2C(F)(F)F)nc(-n2nc(C)cc2C)n1 | < 4.82
8 | CCC(C(=O)Nc1cccc(-c2nc3ccccc3[nH]2)c1)c1ccccc1 (stereo not drawn) | < 4.82
